From patent US8637493B2, “Methods for treating glioblastoma” (University of Massachusetts, priority 2009, dated 2014)

Assays:
U87NS = experiment: Neurosphere formation / recovery / secondary neurosphere assay, U87NS; type: cell-based, human; settings: LY alone at various concentrations, counted after 7 days
Procedure: (§1) The effect of chemotherapy on neurosphere formation was assayed in glioma neurosphere cultures. Cultures are treated with a single dose of the agent, e.g., TMZ and multiple doses of a GSI, e.g., DAPT to inhibit the Notch pathway. After the Treatment phase, the number of initial spheres (counted about 7 days after TMZ treatment) represents the number of proliferating CSC/progenitors (FIG. 1 for schematic). Recovery (counted 14 days after TMZ treatment) includes enlargement of the initial spheres and new spheres formed when CSC/progenitor cells quiescent as a result of chemotherapy resume cell proliferation. […] The cells used included U87NS, a neurosphere culture converted to neurosphere growth in defined medium from U87MG (an old Swedish line that is grown in conventional serum conditions); GS7-2, GS8-26 and GS6-22 primary neurosphere cultures that were obtained from grade IV GBM patient tumor samples and AS5-15, which was obtained from a grade III anaplastic astrocytoma.
(§2) To determine the effects of TMZ plus DAPT neurospheres, cells were plated as previously described (Mihaliak et al., Cancer Letts. 296, 168-177 (2010)). Immediately after plating, cells were treated with DMSO, DAPT-only, LY411,575 (LY)-only TMZ-only, TMZ+DAPT or TMZ+LY. The initial neurospheres were counted on day 7 for the converted cell lines and on day 10 for the slower growing primary lines. Neurosphere recovery was measured on day 14 or 20. The neurospheres were dissociated, re-plated and secondary neurosphere formation was measured on day 21 or 30.
(§3) Neurosphere cultures were dissociated to single cell suspensions by pH dissociation followed by filtration through 40 μm screens. For the neurosphere assay, 3,000 cells/ml of defined medium were seeded in 6-well plates. Immediately after plating, cells were treated with DMSO (Research Organics, Cleveland, Ohio) carrier control, TMZ-only, DAPT-only, or TMZ+DAPT. Additional DAPT was added on days 2 and 4. Neurospheres consisting of 10 or more cells were counted under a light microscope on day 7 for the converted cell lines. Primary lines have a slightly longer doubling time and were counted on day 10. After counting the neurospheres from the initial treatment, 2 ml of fresh defined medium was added to each well. DAPT was also added once more to the DAPT-only and TMZ+DAPT samples, and the cells were incubated for an additional 7 or 10 days. Neurospheres from the recovery period were counted on day 14 or day 20. To analyze secondary neurosphere formation, cells were collected, pelleted and dissociated to a single cell suspension by the pH method. Cells from each well were re-seeded into 6-well plates with 2 ml of defined medium. The number of secondary neurospheres formed by converted cell lines and primary cultures were counted on day 21 or day 30, respectively. All recovery assays were repeated with a minimum of 6 replicate sets of time points.
For the samples labeled “PRE-treat”, a single dose of DAPT was administered when the cells were plated, and then TMZ was added to the medium 24 hours later. For the “CO-treat” samples, single doses of TMZ and DART were added simultaneously when the cells were plated. Finally, samples labeled “POST-treat” were treated with TMZ, and then DAPT was added 24 hours later.

U373NS = experiment: Neurosphere formation / recovery / secondary neurosphere assay, U373NS; type: cell-based, human
Procedure: as §1, §2, §3

In the case of C[C@H](NC(=O)[C@@H](O)c1cc(F)cc(F)c1)C(=O)N[C@@H]1C(=O)N(C)c2ccccc2-c2ccccc21 [LY, N-2((2S)-2-(3,5-difluorophenyl)-2-hydroxyethanoyl)-N1-((7S)-5-methyl-6-oxo-6,7-dihydro-5H-dibenzo[b,d]azepin-7-yl)-L-alaninamide], the neurosphere formation (U87NS) is reported as “dose-dependent decrease”, the neurosphere formation (U373NS; LY alone at various concentrations, counted after 7 days) is reported as “dose-dependent decrease” and the “secondary neurosphere formation compared to DMSO treated samples” value (U373NS; LY-only, secondary formation still robust) is reported as “decreased”.
